# Experimental data: patent publication US11814652B2, “Pluripotent stem cell differentiation-promoting agent” (Oriental Yeast Co., Ltd., priority 2018, dated 2023)
# Columns and labels:
# iPS cells 253G1 strain = experiment: Cell number in endodermal differentiation-induction after undifferentiated culture with β-NMN (Example 5); type: cell-based; conditions: β-NMN 0.25 or 1 mM in culture medium for iPS cells before endodermal differentiation-induction; 7th day after seeding; versus no β-NMN
# Description: The effects of culturing in the presence of β-NMN before induction of differentiation on the endodermal differentiation-induction of iPS cells was examined. As the iPS cells, the 253G1 strain was used. iPS cells seeded on a culture dish coated with Matrigel (manufactured by Corning Incorporated) according to the manufacturer's protocol were cultured in a culture medium prepared by adjusting a culture medium for iPS cells to have a final concentration of β-NMN 0, 0.25 or 1 mM, and a final concentration of Rock inhibitor of 10 μM for 1 day. From the 1st day after seeding, the culture medium was replaced every day with a culture medium obtained by removing the Rock inhibitor from the culture medium at the time of seeding. When the confluent reached 70 to 80%, the iPS cells were detached from the culture dish and collected. The collected iPS cells were seeded at 3×10^5 cells/well in a 24-well plate coated with Matrigel (manufactured by Corning Incorporated) according to the manufacturer's protocol. The cells in the 24-well plate were cultured for 1 day in a culture medium prepared by removing β-NMN from the culture medium when culturing in the culture dish and adjusting to have a final concentration of Rock inhibitor of 10 μM. […] Cells on the 7th day after seeding were sampled and the numbers of cells were counted.
# iPS cells 201B7 strain = experiment: Flow cytometry of Brachyury/CD56 after mesodermal differentiation-induction following undifferentiated culture with β-NMN (Example 6); type: cell-based, human; conditions: β-NMN 0.25 or 1 mM before mesodermal differentiation-induction; 5th or 7th day; versus absence of β-NMN
# Description: The effects of culturing in the presence of β-NMN before induction of differentiation on the mesodermal differentiation-induction of iPS cells was examined. As the iPS cells, the 201B7 strain was used. The iPS cells were cultured in a culture dish in the same manner as in Example 5, and when the confluent reached 70 to 80%, the iPS cells were detached from the culture dish and collected. The collected iPS cells were seeded at 1×10^5 cells/well in a 24-well plate coated with Matrigel (manufactured by Corning Incorporated) according to the manufacturer's protocol. The cells in the 24-well plate were cultured for 1 day in a culture medium prepared by removing β-NMN from the culture medium when culturing in the culture dish and adjusting to have a final concentration of Rock inhibitor of 10 μM. From the 1st day after seeding, the medium was replaced every day with a culture medium for mesodermal differentiation-induction of “STEMdiff Trilineage Differentiation kit” (manufactured by STEMCELL Technologies). In the same manner as in Example 3, the cells sampled on the 5th or 7th day after seeding were stained with a fluorescently labeled anti-Brachyury antibody and a fluorescently labeled anti-CD56 antibody, and a flow cytometer was used to analyze the fluorescence intensity of the anti-Brachyury antibody and the fluorescence intensity of the anti-CD56 antibody in each sample. […]
# [1] = test system: Human adipose tissue-derived mesenchymal stem cells; experiment: Oil red O staining after adipocyte differentiation-induction of mesenchymal stem cells grown with β-NMN (Example 9); type: cell-based; conditions: growth medium supplemented with 0.1 mM or 0.25 mM of β-NMN; 14th day of adipocyte differentiation-induction; compared with 0 mM
# Source text: The effects of culturing in the presence of β-NMN before adipocyte differentiation-induction of mesenchymal stern cells were examined. In the same manner as in Example 8, Human adipose tissue-derived mesenchymal stem cells (manufactured by Lonza, Cat #PT5006) were used as the mesenchymal stem cells. As a growth culture medium, a culture medium prepared by appropriately adding β-MNM to “MSCGM Bullet Kit” (manufactured by Lonza, Cat #PT3001) was used as in Example 8. As an adipocyte differentiation-inducing culture medium, a culture medium prepared by adjusting a DMEM-High Glucose medium to have a final concentration of fetal bovine serum of 10% by volume, a final concentration of IBMX of 0.5 mM, a final concentration of dexamethasone of 1 μM, a final concentration of indomethacin of 200 μM, and a final concentration of penicillin-streptomycin of 0.1% was used. The culture of the mesenchymal stem cells before differentiation-induction was performed in the same manner as in Example 8. The differentiation induction was performed in the same manner as in Example 8 except that the adipocyte differentiation-inducing culture medium was used instead of the bone differentiation-inducing culture medium. On the 14th day from the initiation of the differentiation-induction, the staining test and the cell RNA recovery were performed. […]
compound,measurement,setting,value
"NC(=O)c1ccc[n+]([C@@H]2O[C@H](COP(=O)([O-])O)[C@@H](O)[C@H]2O)c1 [β-NMN, β-nicotinamide mononucleotide]",cell number,iPS cells 253G1 strain,no clear difference
same,ratio of Brachyury-positive CD56-positive cells,iPS cells 201B7 strain,no clear difference
same,accumulation of lipid droplets (oil red O staining),[1],more accumulation of lipid droplets
